Earlier results on 1 compound are cited in patent US20080279914A1, “Transdermal composition comprising piroxicam-inorganic material complex and patch system comprising the same” (priority 2006, published 2008).

For this series the following is noted: orally administered.

Molecules are shown by their SMILES.

Consider `CN1C(C(=O)Nc2ccccn2)=C(O)c2ccccc2S1(=O)=O` [piroxicam], for which the “drug discharged unchanged in the urine” value is recorded as “less than 5%”.
